{"source": "patent US11142529B2", "about": "(priority 2013, dated 2021)", "key": {"[1]": {"type": "in vivo, Long Evans rats", "conditions": "i.v.", "protocol": "(§1) Food and water were available ad libitum.\nFor plasma exposures, blood samples were centrifuged at 14000 rpm for 16 minutes. After centrifuging, 50 ul of supernatant (plasma) from each sample was added to 200 μl of acetonitrile plus 0.1% formic acid. […] Samples were sonicated for 5 minutes in an ultrasonic water bath, followed by centrifugation for 30 minutes, at 16000 RPM. 100 ul of supernatant was removed from each sample vial and placed in a new glass auto sample vial, followed by the addition of 300 μl of sterile water (pH 6.5)."}, "aged-impaired (AI) rats": {"system": "aged-impaired (AI) rats", "test": "Radial Arm Maze (RAM) behavioral task, two-hour delay (Example 107A)", "type": "in vivo, rat", "conditions": "3 mg/kg ip", "protocol": "The effects of methyl 3,5-diphenylpyridazine-4-carboxylate on the in vivo spatial memory retention of aged-impaired (AI) rats were assessed in a Radial Arm Maze (RAM) behavioral task using vehicle control and four different dosage levels of methyl 3,5-diphenylpyridazine-4-carboxylate (0.1 mg/kg, 0.3 mg/kg, 1 mg/kg and 3 mg/kg, ip). RAM behavioral tasks were performed on eight AI rats. All five treatment conditions (vehicle and four dosage levels) were tested on all eight rats.\nThe RAM apparatus used consisted of eight equidistantly-spaced arms. An elevated maze arm (7 cm width×75 cm length) projected from each facet of an octagonal center platform (30 cm diameter, 51.5 cm height). Clear side walls on the arms were 10 cm high and were angled at […] to form a trough. A food well (4 cm diameter, 2 cm deep) was located at the distal end of each arm. Froot Loops™ (Kellogg Company) were used as rewards. Blocks constructed of Plexiglas™ (30 cm height×12 cm width) could be positioned to prevent entry to any arm. Numerous extra maze cues surrounding the apparatus were also provided.\nThe AI rats were initially subjected to a pre-training test (Chappell et al. Neuropharmacology 37: 481-487, 1998). […]"}, "α5-containing GABAA R": {"molecular_target": "α5-containing GABAA R (Homo sapiens, UniProt P18507+P31644)", "sequence (P31644 32-462)": "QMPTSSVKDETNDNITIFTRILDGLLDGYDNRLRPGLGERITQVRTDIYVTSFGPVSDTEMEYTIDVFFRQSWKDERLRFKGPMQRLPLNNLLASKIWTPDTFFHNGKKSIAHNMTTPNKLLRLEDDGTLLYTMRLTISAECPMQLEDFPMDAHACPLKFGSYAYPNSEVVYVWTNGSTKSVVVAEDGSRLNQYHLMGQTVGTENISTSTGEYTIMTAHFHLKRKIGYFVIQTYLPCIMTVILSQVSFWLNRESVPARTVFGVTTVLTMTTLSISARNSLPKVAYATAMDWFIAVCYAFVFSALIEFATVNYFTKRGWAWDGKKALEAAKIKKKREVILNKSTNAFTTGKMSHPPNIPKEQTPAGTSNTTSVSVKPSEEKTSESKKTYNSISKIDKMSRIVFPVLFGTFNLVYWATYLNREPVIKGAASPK", "sequence (P28472 26-473 partner)": "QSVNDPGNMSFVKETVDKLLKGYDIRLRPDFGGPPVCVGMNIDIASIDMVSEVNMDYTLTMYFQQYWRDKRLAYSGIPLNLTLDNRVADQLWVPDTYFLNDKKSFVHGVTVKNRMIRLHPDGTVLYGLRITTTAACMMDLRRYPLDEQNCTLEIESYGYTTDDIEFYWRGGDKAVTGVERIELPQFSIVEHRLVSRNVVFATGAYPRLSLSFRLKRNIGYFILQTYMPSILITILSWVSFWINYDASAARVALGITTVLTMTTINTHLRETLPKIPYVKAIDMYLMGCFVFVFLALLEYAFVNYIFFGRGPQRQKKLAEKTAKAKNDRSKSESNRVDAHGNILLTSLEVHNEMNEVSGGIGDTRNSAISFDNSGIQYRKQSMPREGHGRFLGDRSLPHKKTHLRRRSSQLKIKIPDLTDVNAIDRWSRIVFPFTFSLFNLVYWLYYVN", "sequence (P18507 40-475)": "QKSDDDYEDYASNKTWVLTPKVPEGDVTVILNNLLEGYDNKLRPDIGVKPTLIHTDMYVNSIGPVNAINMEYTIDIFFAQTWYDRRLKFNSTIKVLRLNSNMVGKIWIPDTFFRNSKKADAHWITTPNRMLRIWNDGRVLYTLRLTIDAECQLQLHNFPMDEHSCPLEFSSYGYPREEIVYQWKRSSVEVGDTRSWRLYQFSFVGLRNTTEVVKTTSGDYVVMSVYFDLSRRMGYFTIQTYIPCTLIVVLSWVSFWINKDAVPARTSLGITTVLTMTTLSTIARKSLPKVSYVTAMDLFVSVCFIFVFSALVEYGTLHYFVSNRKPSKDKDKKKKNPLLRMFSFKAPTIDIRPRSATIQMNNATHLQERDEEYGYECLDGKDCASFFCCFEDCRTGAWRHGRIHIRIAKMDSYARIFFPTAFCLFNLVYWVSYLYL", "conditions": "cited from earlier work"}, "GABAAα5 receptor": {"molecular_target": "T1, GABAAα5 receptor (Rattus norvegicus, UniProt P18508+P19969)", "T1 construct": "occupancy in the hippocampus (a region of high GABAAα5 receptor density); from tissue; host or cells: rat brain in vivo; hippocampus versus cerebellum", "T1 sequence (P19969 32-464 limits assumed)": "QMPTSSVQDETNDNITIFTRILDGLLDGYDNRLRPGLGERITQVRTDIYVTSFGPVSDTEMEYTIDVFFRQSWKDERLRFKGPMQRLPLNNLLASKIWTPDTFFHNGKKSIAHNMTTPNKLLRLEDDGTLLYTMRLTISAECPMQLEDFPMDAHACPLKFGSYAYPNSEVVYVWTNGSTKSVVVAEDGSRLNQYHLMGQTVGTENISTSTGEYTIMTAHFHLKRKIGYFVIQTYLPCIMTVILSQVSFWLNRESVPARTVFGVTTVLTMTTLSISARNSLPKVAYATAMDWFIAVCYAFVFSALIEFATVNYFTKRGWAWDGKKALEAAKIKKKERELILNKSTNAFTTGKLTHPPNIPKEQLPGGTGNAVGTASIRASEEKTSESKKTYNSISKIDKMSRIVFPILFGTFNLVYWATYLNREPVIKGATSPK", "T1 sequence (P18508 39-466)": "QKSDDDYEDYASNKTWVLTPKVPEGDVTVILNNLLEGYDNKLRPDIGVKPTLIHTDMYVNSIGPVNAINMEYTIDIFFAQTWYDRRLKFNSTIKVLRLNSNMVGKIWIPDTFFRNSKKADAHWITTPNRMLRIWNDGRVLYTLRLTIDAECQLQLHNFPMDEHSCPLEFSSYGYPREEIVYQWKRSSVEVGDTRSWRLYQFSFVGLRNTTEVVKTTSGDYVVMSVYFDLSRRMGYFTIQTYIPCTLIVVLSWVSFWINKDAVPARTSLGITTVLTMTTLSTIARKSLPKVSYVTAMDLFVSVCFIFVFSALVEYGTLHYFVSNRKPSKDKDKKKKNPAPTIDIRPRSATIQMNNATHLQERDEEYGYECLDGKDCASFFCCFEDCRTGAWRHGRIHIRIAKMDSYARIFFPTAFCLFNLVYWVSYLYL", "test": "GABAA α5 receptor occupancy with Ro 15-4513 tracer (Example 107B)", "type": "in vivo, Long Evans rats", "excerpt": "as §1"}}, "note": "“Also recorded” adds a separate entry of the source. Like-named read-outs stand apart in the source and are kept apart here."}
{"smiles": "COC(=O)c1c(-c2ccccc2)cnnc1-c1ccccc1", "note": "[methyl 3,5-diphenylpyridazine-4-carboxylate]", "values": [{"measurement": "increase in hippocampal exposure", "setting": "[1]; dose from 0.1 to 1 mg/kg", "result": 12, "unit": "fold"}, {"measurement": "increase in hippocampal exposure", "setting": "[1]; dose from 1 to 10 mg/kg", "result": "~5", "unit": "fold"}, {"measurement": "increase in plasma exposure", "setting": "[1]; dose from 1 to 10 mg/kg", "result": 12, "unit": "fold"}, {"measurement": "memory performance relative to vehicle control", "setting": "aged-impaired (AI) rats; t(7)=4.233, p=0.004", "result": "significantly improved memory performance"}, {"measurement": "average no. of errors ± SEM in retention test", "setting": "aged-impaired (AI) rats; two-hour delay", "result": "1.31±0.40"}, {"measurement": "α5 in vitro efficacy (EC20)", "setting": "α5-containing GABAA R", "result": "+27"}, {"measurement": "effect on Ro 15-4513 binding in hippocampus", "setting": "GABAAα5 receptor; 0.01-10 mg/kg, i.v.", "result": "blocked the binding; also recorded: dose-dependently reduced"}, {"measurement": "effect on cerebellum levels of Ro 15-4513", "setting": "GABAAα5 receptor; 0.01-10 mg/kg, i.v.", "result": "did not affect binding; also recorded: without affecting"}, {"measurement": "GABAA α5 receptors occupied at exposures behaviorally active in aged-impaired rats", "setting": "GABAAα5 receptor; hippocampus, FIG. 4", "result": "about 32%"}, {"measurement": "ED50 of receptor occupancy, ratio method", "setting": "GABAAα5 receptor; i.v.", "result": 1.8, "unit": "mg/kg"}, {"measurement": "GABAA α5 receptor occupancy, dose dependence", "setting": "GABAAα5 receptor; rat, in vivo", "result": "dose-dependent increase"}, {"measurement": "receptor occupancy at 10 mg/kg", "setting": "GABAAα5 receptor; rat, iv, 10 mg/kg", "result": "> 90", "unit": "%"}, {"measurement": "ED50", "setting": "GABAAα5 receptor; rat, iv, read-out: ED50 of receptor occupancy, using L-755,608 to define occupancy", "result": 1.1, "unit": "mg/kg"}]}
